target: T1, human PAH with the R408W mutation (Homo sapiens, UniProt P00439, R408W); assay: Cell Based Phenylalanine Flux Assay; details: A375 cells expressing human R408W PAH; 24 hrs compound incubation; 13C-Tyrosine by LC-MS; average where tested multiple times; read-out: AC50;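 note: after compound treatment, cells received sepiapterin plus isotope-labelled Phenylalanine for 4 hours, then labelled Tyrosine in the medium was quantified, 10-point 2-fold dilution series run in duplicate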
T1 construct: expressed in transfected cells
T1 sequence (P00439 1-452 R408W): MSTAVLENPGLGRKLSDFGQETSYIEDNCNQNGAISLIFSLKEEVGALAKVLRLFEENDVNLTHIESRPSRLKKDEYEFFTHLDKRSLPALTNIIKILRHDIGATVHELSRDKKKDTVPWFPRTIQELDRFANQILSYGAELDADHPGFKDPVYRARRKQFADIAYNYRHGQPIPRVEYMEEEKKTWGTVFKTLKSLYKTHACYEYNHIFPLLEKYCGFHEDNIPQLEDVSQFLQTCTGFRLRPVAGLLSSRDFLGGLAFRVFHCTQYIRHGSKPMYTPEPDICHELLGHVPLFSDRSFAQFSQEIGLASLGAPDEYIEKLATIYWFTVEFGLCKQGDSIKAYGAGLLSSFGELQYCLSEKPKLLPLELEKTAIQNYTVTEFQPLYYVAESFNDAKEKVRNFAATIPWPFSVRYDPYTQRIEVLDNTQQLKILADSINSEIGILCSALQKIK

AC50 [nM]	SMILES
500 to 1000	O=C(c1cnn2cc(N3CCOCC3)ccc12)N1CCc2[nH]cnc2[C@H]1c1cc2c(C(F)(F)F)cccn2n1 [Example 1614, (S)-(6-morpholinopyrazolo[1,5-a]pyridin-3-yl)(4-(4-(trifluoromethyl)pyrazolo[1,5-a]pyridin-2-yl)-6,7-dihydro-1H-imidazo[4,5-c]pyridin-5(4H)-yl)methanone]
> 5000	Cc1cccn2nc([C@H]3c4nc[nH]c4CCN3C(=O)c3cnn4cc(-c5ccn(C)n5)ccc34)cc12 [Example 1620, (R)-(6-(1-methyl-1H-pyrazol-3-yl)pyrazolo[1,5-a]pyridin-3-yl)(4-(4-methylpyrazolo[1,5-a]pyridin-2-yl)-6,7-dihydro-1H-imidazo[4,5-c]pyridin-5(4H)-yl)methanone]
< 500	Cc1cccn2nc([C@@H]3c4nc[nH]c4CCN3C(=O)c3cnn4cc(-c5ccn(C)n5)ccc34)cc12 [Example 1621, (S)-(6-(1-methyl-1H-pyrazol-3-yl)pyrazolo[1,5-a]pyridin-3-yl)(4-(4-methylpyrazolo[1,5-a]pyridin-2-yl)-6,7-dihydro-1H-imidazo[4,5-c]pyridin-5(4H)-yl)methanone]
500 to 1000	Cc1cccn2nc([C@@H]3c4nc[nH]c4CCN3C(=O)c3cnn4cc(-c5cnn(C)c5)ccc34)cc12 [Example 1630, (S)-(6-(1-methyl-1H-pyrazol-4-yl)pyrazolo[1,5-a]pyridin-3-yl)(4-(4-methylpyrazolo[1,5-a]pyridin-2-yl)-6,7-dihydro-1H-imidazo[4,5-c]pyridin-5(4H)-yl)methanone]

More lines, now with the values behind:

SMILES	AC50 [nM]
Fc1cccn2nc([C@H]3c4nc[nH]c4CCN3c3nnc(-c4ccccn4)o3)cc12 [Example 1612, (R)-2-(4-(4-fluoropyrazolo[1,5-a]pyridin-2-yl)-6,7-dihydro-1H-imidazo[4,5-c]pyridin-5(4H)-yl)-5-(pyridin-2-yl)-1,3,4-oxadiazole]	> 5000
Fc1cccn2nc([C@@H]3c4nc[nH]c4CCN3c3nnc(-c4ccccn4)o3)cc12 [Example 1613, (S)-2-(4-(4-fluoropyrazolo[1,5-a]pyridin-2-yl)-6,7-dihydro-1H-imidazo[4,5-c]pyridin-5(4H)-yl)-5-(pyridin-2-yl)-1,3,4-oxadiazole]	< 500
Fc1cccn2nc([C@@H]3c4nc[nH]c4CCN3c3ncccn3)cc12 [Example 1616, (S)-4-(4-fluoropyrazolo[1,5-a]pyridin-2-yl)-5-(pyrimidin-2-yl)-4,5,6,7-tetrahydro-1H-imidazo[4,5-c]pyridine]	< 500
Fc1cccn2nc([C@H]3c4nc[nH]c4CCN3c3ncccn3)cc12 [Example 1617, (R)-4-(4-fluoropyrazolo[1,5-a]pyridin-2-yl)-5-(pyrimidin-2-yl)-4,5,6,7-tetrahydro-1H-imidazo[4,5-c]pyridine]	> 5000
Cc1cccn2nc([C@@H]3c4nc[nH]c4CCN3c3ncccn3)cc12 [Example 1618, (S)-4-(4-methylpyrazolo[1,5-a]pyridin-2-yl)-5-(pyrimidin-2-yl)-4,5,6,7-tetrahydro-1H-imidazo[4,5-c]pyridine]	< 500
Cc1cccn2nc([C@H]3c4nc[nH]c4CCN3c3ncccn3)cc12 [Example 1619, (R)-4-(4-methylpyrazolo[1,5-a]pyridin-2-yl)-5-(pyrimidin-2-yl)-4,5,6,7-tetrahydro-1H-imidazo[4,5-c]pyridine]	1000 to 5000
Clc1cccn2nc([C@@H]3c4nc[nH]c4CCN3c3nnc(-c4ccccn4)o3)cc12 [Example 1623, (S)-2-(4-(4-chloropyrazolo[1,5-a]pyridin-2-yl)-6,7-dihydro-1H-imidazo[4,5-c]pyridin-5(4H)-yl)-5-(pyridin-2-yl)-1,3,4-oxadiazole]	< 500
FC(F)c1cccc2cc([C@@H]3c4nc[nH]c4CCN3c3nnc(-c4ccccn4)o3)nn12 [Example 1626, (S)-2-(4-(7-(difluoromethyl)pyrazolo[1,5-a]pyridin-2-yl)-6,7-dihydro-1H-imidazo[4,5-c]pyridin-5(4H)-yl)-5-(pyridin-2-yl)-1,3,4-oxadiazole]	500 to 1000
